According to PubChem BioAssay (NCI):
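Cultured in 96-well plates, cells were exposed to test compound for 48 hours across five concentrations. At the TGI there is no net growth.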

Key:
Experiment in all cases: NCI anticancer screen, dose series, 48 h
OVCAR-3 ovarian = system: OVCAR-3 ovarian
EKVX NSCLC = system: EKVX NSCLC
SF-539 CNS = system: SF-539 CNS
TK-10 renal = system: TK-10 renal
SNB-19 CNS = system: SNB-19 CNS
SK-OV-3 ovarian = system: SK-OV-3 ovarian
RXF 393 renal = system: RXF 393 renal
SNB-75 CNS = system: SNB-75 CNS
A498 renal = system: A498 renal
NCI/ADR-RES ovarian = system: NCI/ADR-RES ovarian
MDA-MB-231 breast = system: MDA-MB-231 breast
SW-620 colon = system: SW-620 colon
MALME-3M melanoma = system: MALME-3M melanoma
MOLT-4 leukemia = system: MOLT-4 leukemia
OVCAR-8 ovarian = system: OVCAR-8 ovarian
SF-268 CNS = system: SF-268 CNS
NCI-H23 lung = system: NCI-H23 lung
NCI-H226 lung = system: NCI-H226 lung
HCT-116 colon = system: HCT-116 colon
M14 melanoma = system: M14 melanoma
786-0 renal = system: 786-0 renal
KM12 colon = system: KM12 colon
LOX IMVI melanoma = system: LOX IMVI melanoma
OVCAR-5 ovarian = system: OVCAR-5 ovarian
UO-31 renal = system: UO-31 renal
COLO 205 colon = system: COLO 205 colon
ACHN renal = system: ACHN renal
MDA-MB-435 = system: MDA-MB-435
T-47D breast = system: T-47D breast
NCI-H460 lung = system: NCI-H460 lung
A549 NSCLC = system: A549 NSCLC
HCT-15 colon = system: HCT-15 colon
NCI-H522 lung = system: NCI-H522 lung
CAKI-1 renal = system: CAKI-1 renal
OVCAR-4 ovarian = system: OVCAR-4 ovarian
SK-MEL-28 melanoma = system: SK-MEL-28 melanoma
HOP-92 NSCLC = system: HOP-92 NSCLC
RPMI-8226 leukemia = system: RPMI-8226 leukemia
BT-549 breast = system: BT-549 breast
HT29 colon = system: HT29 colon
U251 CNS = system: U251 CNS
IGROV1 ovarian = system: IGROV1 ovarian
SF-295 CNS = system: SF-295 CNS
HOP-62 NSCLC = system: HOP-62 NSCLC
MDA-N = system: MDA-N
DU-145 prostate = system: DU-145 prostate
SK-MEL-5 melanoma = system: SK-MEL-5 melanoma
UACC-257 melanoma = system: UACC-257 melanoma
SN12C renal = system: SN12C renal
MCF7 breast = system: MCF7 breast
HCC-2998 colon = system: HCC-2998 colon
CCRF-CEM leukemia = system: CCRF-CEM leukemia
HL-60(TB) leukemia = system: HL-60(TB) leukemia
SR leukemia = system: SR leukemia
PC-3 prostate = system: PC-3 prostate

## Cc1cnc(Cl)nc1C(C#N)c1nc2ccccc2s1 (stereo not given)
OVCAR-3 ovarian
  TGI: > 100 µM
EKVX NSCLC
  TGI: > 100 µM
SF-539 CNS
  TGI: 63.8 µM
TK-10 renal
  TGI: 78.4 µM
SNB-19 CNS
  TGI: > 100 µM
SK-OV-3 ovarian
  TGI: 87.2 µM
RXF 393 renal
  TGI: 48.1 µM
SNB-75 CNS
  TGI: 53.5 µM
A498 renal
  TGI: 84.2 µM
NCI/ADR-RES ovarian
  TGI: 89.2 µM
MDA-MB-231 breast
  TGI: > 100 µM
SW-620 colon
  TGI: > 100 µM
MALME-3M melanoma
  TGI: 46 µM
MOLT-4 leukemia
  TGI: > 100 µM
OVCAR-8 ovarian
  TGI: > 100 µM
SF-268 CNS
  TGI: 87.8 µM
NCI-H23 lung
  TGI: 40.8 µM
NCI-H226 lung
  TGI: 84.5 µM
HCT-116 colon
  TGI: 38.2 µM
M14 melanoma
  TGI: > 100 µM
786-0 renal
  TGI: 38.3 µM
KM12 colon
  TGI: > 100 µM
LOX IMVI melanoma
  TGI: 50.7 µM
OVCAR-5 ovarian
  TGI: 80.4 µM
UO-31 renal
  TGI: > 100 µM
COLO 205 colon
  TGI: 28.5 µM
ACHN renal
  TGI: 42.2 µM
MDA-MB-435
  TGI: > 100 µM
T-47D breast
  TGI: > 100 µM
NCI-H460 lung
  TGI: > 100 µM
A549 NSCLC
  TGI: > 100 µM
HCT-15 colon
  TGI: > 100 µM
NCI-H522 lung
  TGI: 16.4 µM
CAKI-1 renal
  TGI: 73.4 µM
OVCAR-4 ovarian
  TGI: > 100 µM
SK-MEL-28 melanoma
  TGI: > 100 µM
HOP-92 NSCLC
  TGI: 35.4 µM
RPMI-8226 leukemia
  TGI: > 100 µM
BT-549 breast
  TGI: 51.2 µM
HT29 colon
  TGI: > 100 µM
U251 CNS
  TGI: > 100 µM
IGROV1 ovarian
  TGI: > 100 µM
SF-295 CNS
  TGI: 62.2 µM
HOP-62 NSCLC
  TGI: 54.6 µM
MDA-N
  TGI: 68.1 µM
DU-145 prostate
  TGI: > 100 µM
SK-MEL-5 melanoma
  TGI: 20.1 µM
UACC-257 melanoma
  TGI: > 100 µM
SN12C renal
  TGI: 63.2 µM

## CC1=C(C)C(=O)C2=C(OCCO2)C1=O
MCF7 breast
  TGI: 63.5 µM
OVCAR-3 ovarian
  TGI: 32.3 µM
EKVX NSCLC
  TGI: 28.9 µM
SF-539 CNS
  TGI: 35 µM
TK-10 renal
  TGI: 32.6 µM
SNB-19 CNS
  TGI: 32.7 µM
HCC-2998 colon
  TGI: 35 µM
SK-OV-3 ovarian
  TGI: 34.6 µM
A498 renal
  TGI: 38.7 µM
NCI/ADR-RES ovarian
  TGI: 21.1 µM
MDA-MB-231 breast
  TGI: 11.2 µM
SW-620 colon
  TGI: 45.3 µM
MALME-3M melanoma
  TGI: 29.7 µM
MOLT-4 leukemia
  TGI: 7.2 µM
OVCAR-8 ovarian
  TGI: 9.34 µM
SF-268 CNS
  TGI: 69.7 µM
NCI-H23 lung
  TGI: 48 µM
NCI-H226 lung
  TGI: 45 µM
HCT-116 colon
  TGI: 13.5 µM
M14 melanoma
  TGI: 35.3 µM
786-0 renal
  TGI: 44.6 µM
KM12 colon
  TGI: 34.2 µM
LOX IMVI melanoma
  TGI: 32.9 µM
OVCAR-5 ovarian
  TGI: 36.4 µM
UO-31 renal
  TGI: 24 µM
COLO 205 colon
  TGI: 33.1 µM
ACHN renal
  TGI: 55.1 µM
MDA-MB-435
  TGI: 7.76 µM
T-47D breast
  TGI: 5.55 µM
NCI-H460 lung
  TGI: 40.2 µM
CCRF-CEM leukemia
  TGI: 8.84 µM
A549 NSCLC
  TGI: 43.1 µM
HCT-15 colon
  TGI: 35.1 µM
CAKI-1 renal
  TGI: 32.7 µM
HL-60(TB) leukemia
  TGI: 15 µM
SK-MEL-28 melanoma
  TGI: 30.2 µM
HOP-92 NSCLC
  TGI: 6.96 µM
SR leukemia
  TGI: 20.3 µM
RPMI-8226 leukemia
  TGI: 7.08 µM
BT-549 breast
  TGI: 37.7 µM
HT29 colon
  TGI: 44.3 µM
U251 CNS
  TGI: 31.5 µM
IGROV1 ovarian
  TGI: 5.66 µM
SF-295 CNS
  TGI: 33 µM
PC-3 prostate
  TGI: 52.9 µM
HOP-62 NSCLC
  TGI: 33.1 µM
MDA-N
  TGI: 26.7 µM
DU-145 prostate
  TGI: 34 µM
SK-MEL-5 melanoma
  TGI: 30.1 µM
UACC-257 melanoma
  TGI: 28.4 µM
SN12C renal
  TGI: 34.8 µM
